# Data: ChEMBL document CHEMBL3044587, “Synthesis of B-ring substituted flavones and evaluation of their antitumor and antioxidant activities” (Med Chem Res, 2013)
# Structures can show the parent of a compound that is named as a salt.
# What was measured:
# Type in all cases: functional
# [1] = system: HepG2; assay: Cytotoxicity against Homo sapiens (human) HepG2 cells after 48 hr by SRB assay; settings: HepG2, 48 h
# [2] = system: MCF7; assay: Cytotoxicity against Homo sapiens (human) MCF7 cells after 48 hr by SRB assay; settings: MCF7, 48 h
# [3] = system: Liver microsome; assay: Antioxidant activity in Wistar albino Rattus norvegicus (rat) liver microsomes assessed as inhibition of lipid peroxidation after 1 hr by TBARS method
# [4] = system: MOLT-4; assay: Cytotoxicity against Homo sapiens (human) MOLT4 cells after 48 hr by SRB assay; settings: MOLT-4, 48 h
# [5] = system: HepG2; assay: Growth inhibition of Homo sapiens (human) HepG2 cells at 100 uM after 48 hr by SRB assay; settings: HepG2, 48 h, read-out: GI
# [6] = system: MOLT-4; assay: Growth inhibition of Homo sapiens (human) MOLT4 cells at 100 uM after 48 hr by SRB assay; settings: MOLT-4, 48 h, read-out: GI
# [7] = system: MCF7; assay: Growth inhibition of Homo sapiens (human) MCF7 cells at 100 uM after 48 hr by SRB assay; settings: MCF7, 48 h, read-out: GI
Structure (SMILES),IC50 [3],GI50 [1],GI50 [2],GI50 [4],inhibition of growth at 100 µM [5],inhibition of growth at 100 µM [6],inhibition of growth at 100 µM [7]
"COc1cc(OC)cc(-c2cc(=O)c3ccccc3o2)c1 [3',5'-DIMETHOXYFLAVONE]",40 µg/mL,58.8 µM,< 0.1 µM,< 0.1 µM,–,–,–
O=c1c(O)c(-c2ccc(O)c(O)c2)oc2cc(O)cc(O)c12 [QUERCETIN],20 µg/mL,–,–,–,–,–,–
O=c1cc(-c2ccccc2)oc2cc(O)cc(O)c12 [CHRYSIN],60 µg/mL,–,69 µM,58.6 µM,< 50%,–,–
COc1cccc2c1C(=O)c1c(O)c3c(c(O)c1C2=O)C[C@@](O)(C(=O)CO)C[C@@H]3O[C@H]1C[C@H](N)[C@H](O)[C@H](C)O1 [DOXORUBICIN HYDROCHLORIDE],–,< 0.1 µM,< 0.1 µM,< 0.1 µM,–,–,–
COc1ccc(-c2cc(=O)c3ccccc3o2)cc1 [4'-METHOXYFLAVONE],60 µg/mL,–,61.8 µM,99.2 µM,< 50%,–,–
"COc1ccc(-c2cc(=O)c3ccccc3o2)cc1OC [3',4'-DIMETHOXYFLAVONE]",40 µg/mL,–,–,–,< 50%,< 50%,< 50%

# The next lines start with results.
IC50 [3],Structure (SMILES),GI50 [1],GI50 [2],GI50 [4],inhibition of growth at 100 µM [5],inhibition of growth at 100 µM [6],inhibition of growth at 100 µM [7]
60 µg/mL,O=c1cc(-c2cccc([N+](=O)[O-])c2)oc2ccccc12,94.9 µM,31 µM,36 µM,–,–,–
80 µg/mL,O=c1cc(-c2ccc(Cl)c([N+](=O)[O-])c2)oc2ccccc12,93.8 µM,40.9 µM,50.7 µM,–,–,–
100 µg/mL,O=c1cc(-c2ccccc2)oc2ccccc12 [FLAVONE],50.6 µM,69.3 µM,–,–,< 50%,–
60 µg/mL,O=c1cc(-c2ccc(Cl)cc2)oc2ccccc12,–,–,–,< 50%,< 50%,< 50%
